The text below walks through data of patent publication US20170001988A1, “PIPERIDINE AND PIPERAZINE DERIVATIVES AND THEIR USE IN TREATING VIRAL INFECTIONS AND CANCER” (THE UNITED STATES OF AMERICA, AS REPRESENTED BY THE …, priority 2013, published 2017).

The subject of data set [1] is Huh7.5.1 cells. Description: in vitro. The settings on record: human. The source says: (§1) EC50 was generated using the HCV-Luc infection assay and IC50 using the ATPLite assay.
(§2) EC50 was generated using the HCV-Luc infection assay and TC50 using the ATPLite assay.
(§3) The cytotoxicity of the compounds was further evaluated in HepG2 cells and primary human hepatocytes.

The nature of data set [2]: in vitro. The settings on record: human.
From the text: as §1, §2, §3

In data set [3] the test system is HCV-Luc. Description: HCV-Luc infection assay. Format: cell-based. The settings on record: for EC50: Hepatitis C virus.
Data set [4] deals with HCV-Luc. The data set is described as follows: HCV-Luc assay of (S)-CCZ combinations, MacSynergy II and CalcuSyn analysis. It is filed as cell-based. Particulars: for CalcuSyn CI value: (S)-CCZ in combination with the drug named; for antiviral effect of (S)-CCZ with the drug named: combination with (S)-CCZ. On the procedure: Direct-acting antivirals, such as telaprevir and daclatasvir, were recently approved for therapy of hepatitis C. […] Using the MacSynergy II program based on Bliss independence model, three-dimensional surface plots were generated and log volume of synergism was calculated for each combination. The results were also analyzed with the CalcuSyn program, in which the combination indices were calculated.

Where two headings read alike, the source gives them in different places.

As to `NCCOCCOCCOCCOCCN1CCN(C(c2ccccc2)c2ccc(Cl)cc2)CC1` (racemic) [(CH2CH2O)4CH2CH2NH2 (R,S), 14-(4-((4-Chlorophenyl)(phenyl)methyl)piperazin-1-yl)-3,6,9,12-tetraoxatetradecan-1-amine], the CC50 in data set [1] and in data set [2] was 12.2 ± 0.8 µM in each case. The EC50 (as a rule, the midpoint of the concentration-response curve) in data set [3] (Table 3, read-out: EC50) came out at 0.004 ± 0.0022 µM. Besides, the “Selective Index” value in data set [3] (Table 3) and in data set [3] (Table 4) was 3050 in each case.
In turn, `COc1ccccc1CN1CCC(N(CCc2ccccc2)Cc2ccccc2)CC1` [2-Methoxybenzyl, N-Benzyl-1-(2-methoxybenzyl)-N-phenethylpiperidin-4-amine] returned a CC50 in data set [2] of 15.2 µM. Further, the EC50 in data set [3] was determined as 0.64 µM.
`c1ccc(CCN2CCC(N(CCc3ccccc3)Cc3ccccc3)CC2)cc1` [2-Phenylethyl, N-Benzyl-N,1-diphenethylpiperidin-4-amine] registered a CC50 in data set [2] above 100 µM. In data set [3] (Table 6, read-out: EC50), the half-maximal effective concentration (EC50) is 16.2 µM.
The like results for `COc1cccc(CN2CCC(N(CCc3ccccc3)Cc3ccccc3)CC2)c1` [3-Methoxybenzyl, N-Benzyl-1-(3-methoxybenzyl)-N-phenethylpiperidin-4-amine] were, in that order, 45.2 µM and 1.57 µM.
As to `Brc1ccc(CN2CCC(N(CCc3ccccc3)Cc3ccccc3)CC2)cc1` [4-Bromobenzyl, N-Benzyl-1-(4-bromobenzyl)-N-phenethylpiperidin-4-amine], the CC50 in data set [2] is above 100 µM. In addition, the EC50 in data set [3] (Table 6, read-out: EC50) amounted to 4.33 µM.
The like results for `Clc1ccc(CN2CCC(N(CCc3ccccc3)Cc3ccccc3)CC2)cc1` [4-Chlorobenzyl, N-Benzyl-1-(4-chlorobenzyl)-N-phenethylpiperidin-4-amine] were, in that order, above 100 µM and 9.24 µM.
For `N#Cc1ccc(CN2CCC(N(CCc3ccccc3)Cc3ccccc3)CC2)cc1` [4-Cyanobenzyl, 4-((4-(Benzyl(phenethyl)amino)piperidin-1-yl)methyl)benzonitrile], the CC50 in data set [2] was determined as 100 µM. For the same compound, the concentration for a half-maximal effect (EC50) in data set [3] (Table 6, read-out: EC50) was 5.86 µM.
In data set [2], `Fc1ccc(CN2CCC(N(CCc3ccccc3)Cc3ccccc3)CC2)cc1` [4-Fluorobenzyl, N-Benzyl-1-(4-fluorobenzyl)-N-phenethylpiperidin-4-amine] came in with a CC50 of 56.3 µM. Besides, the EC50 in data set [3] came to 9.6 µM.
Compound `COc1ccc(CN2CCC(N(CCc3ccccc3)Cc3ccccc3)CC2)cc1` [4-Methoxybenzyl, N-Benzyl-1-(4-methoxybenzyl)-N-phenethylpiperidin-4-amine] gave a CC50 in data set [2] of 27.8 µM. This compound registered a 50% effective concentration (EC50) in data set [3] of 4.35 µM.
`COC(=O)c1ccc(CN2CCC(N(CCc3ccccc3)Cc3ccccc3)CC2)cc1` [4-Methoxycarbonylbenzyl, Methyl 4-((4-(benzyl(phenethyl)amino)piperidin-1-yl)methyl)benzoate] yielded a CC50 in data set [2] above 100 µM. In data set [3] (Table 6, read-out: EC50), the EC50 turned out to be 14 µM.
`Cc1ccc(CN2CCC(N(CCc3ccccc3)Cc3ccccc3)CC2)cc1` [4-Methylbenzyl, N-Benzyl-1-(4-methylbenzyl)-N-phenethylpiperidin-4-amine] gave a CC50 in data set [2] of 40.3 µM. The EC50 in data set [3] (Table 6, read-out: EC50) amounted to 0.74 µM.
Taken in the same sequence, the figures for `c1ccc(CCN(Cc2ccccc2)C2CCN(Cc3ccc(-c4ccccc4)cc3)CC2)cc1` [4-Phenylbenzyl, 1-([1,1′-Biphenyl]-4-ylmethyl)-N-benzyl-N-phenethylpiperidin-4-amine] were above 100 µM and 12.2 µM.
Taken in the same sequence, the figures for `FC(F)(F)c1ccc(CN2CCC(N(CCc3ccccc3)Cc3ccccc3)CC2)cc1` [4-Trifluoromethylbenzyl, N-Benzyl-N-phenethyl-1-(4-(trifluoromethyl)benzyl)piperidin-4-amine] were above 100 µM and above 10 µM.
In the case of `CC(=O)N1CCC(N(CCc2ccccc2)Cc2ccccc2)CC1` [Acetyl, 1-(4-(Benzyl(phenethyl)amino)piperidin-1-yl)ethanone], the CC50 in data set [2] stood at 74.5 µM. Besides, in data set [3] (Table 6, read-out: EC50), the EC50 is above 31.6 µM.
Take `O=C(c1ccccc1)N1CCC(N(CCc2ccccc2)Cc2ccccc2)CC1` [Benzoyl, (4-(Benzyl(phenethyl)amino)piperidin-1-yl)(phenyl)methanone]: in data set [2], the CC50 came to 94 µM. Further, the EC50 in data set [3] (Table 6, read-out: EC50) stood at 24.8 µM.
Regarding `c1ccc(CCN(Cc2ccccc2)C2CCN(Cc3ccccc3)CC2)cc1` [Benzyl, N,1-dibenzyl-N-phenethylpiperidin-4-amine], the CC50 in data set [2] came out at 30.9 µM. The EC50 in data set [3] (Table 6, read-out: EC50) was found to be 0.32 µM.
In the case of `CC(C)(C)NC(=O)N[C@H](C(=O)N1C[C@H]2[C@@H]([C@H]1C(=O)NC(CC1CCC1)C(=O)C(N)=O)C2(C)C)C(C)(C)C` (some centres unmarked) [Boceprevir], the “CalcuSyn CI value” in data set [4] is 0.691 ± 0.114.
The compound `CCCCN1CCC(N(CCc2ccccc2)Cc2ccccc2)CC1` [Butyl, N-Benzyl-1-butyl-N-phenethylpiperidin-4-amine] showed a CC50 in data set [2] of 17.9 µM. For the same compound, in data set [3] (Table 6, read-out: EC50), the EC50 came out at 1.55 µM.
Taken in the same sequence, the figures for `[2H]C([2H])([2H])CN1CCC(N(CCc2ccccc2)Cc2ccccc2)CC1` [CD3CH2—, N-Benzyl-1-ethyl(2,2,2-d3)-N-phenethylpiperidin-4-amine] were 50.8 µM and 2.37 µM.
`[2H]C([2H])([2H])N1CCC(N(CCc2ccccc2)Cc2ccccc2)CC1` [CD3—, N-Benzyl-1-methyl(d3)-N-phenethylpiperidin-4-amine]: in data set [2], the CC50 came out at 100 µM. For the same compound, the EC50 in data set [3] (Table 6, read-out: EC50) worked out at 7.95 µM.
The compound `FC(F)(F)CN1CCC(N(CCc2ccccc2)Cc2ccccc2)CC1` [CF3CH2—, N-Benzyl-N-phenethyl-1-(2,2,2-trifluoroethyl)piperidin-4-amine] registered a CC50 in data set [2] above 100 µM. Besides, the EC50 in data set [3] (Table 6, read-out: EC50) is above 31.6 µM.
The like results for `Ic1ccc(CN2CCC(N(CCc3ccccc3)Cc3ccccc3)CC2)cc1` [Compound 4-Iodobenzyl, N-Benzyl-1-(4-iodobenzyl)-N-phenethylpiperidin-4-amine] were, in that order, above 100 µM and 2.98 µM.
As to `c1ccc(CCN(Cc2ccccc2)C2CCN(C3CCCCC3)CC2)cc1` [Cyclohexyl, N-Benzyl-1-cyclohexyl-N-phenethylpiperidin-4-amine], in data set [2], the CC50 turned out to be 33.8 µM. Besides, the EC50 in data set [3] (Table 6, read-out: EC50) was determined as 1.5 µM.
Turning to `c1ccc(CCN(Cc2ccccc2)C2CCN(C3CCCC3)CC2)cc1` [Cyclopentyl, N-Benzyl-1-cyclopentyl-N-phenethylpiperidin-4-amine], in data set [2], the CC50 turned out to be 15 µM. For the same compound, in data set [3] (Table 6, read-out: EC50), the EC50 came to 0.48 µM.
As for `COC(=O)N[C@H](C(=O)N1CCC[C@H]1c1nc(-c2ccc(-c3ccc(-c4c[nH]c([C@@H]5CCCN5C(=O)[C@@H](NC(=O)OC)C(C)C)n4)cc3)cc2)c[nH]1)C(C)C` [Daclataivir], the “CalcuSyn CI value” in data set [4] is reported as 0.427 ± 0.142.
For `CCN1CCN([C@@H](c2ccccc2)c2ccc(Cl)cc2)CC1` [Et (S), (S)-1-((4-Chlorophenyl)(phenyl)methyl)-4-ethylpiperazine], the CC50 in data set [1] and in data set [2] was 40 ± 1.1 µM throughout. Moreover, the EC50 in data set [3] (Table 3, read-out: EC50) was found to be 0.02 ± 0.002 µM.
In turn, `CCN1CCC(N(CCc2ccccc2)Cc2ccccc2)CC1` [Et, N-Benzyl-1-ethyl-N-phenethylpiperidin-4-amine] had a CC50 in data set [2] of 35.3 µM. The EC50 in data set [3] (Table 6, read-out: EC50) was 0.039 µM.
Taken in the same sequence, the figures for `c1ccc(CCN(Cc2ccccc2)C2CCNCC2)cc1` [H, N-Benzyl-N-phenethylpiperidin-4-amine] were 23.5 µM and 0.12 µM.
`CC(C)CN1CCC(N(CCc2ccccc2)Cc2ccccc2)CC1` [Isobutyl, N-Benzyl-1-isobutyl-N-phenethylpiperidin-4-amine]: the CC50 in data set [2] is 37.6 µM. The 50% effective concentration (EC50) in data set [3] (Table 6, read-out: EC50) came out at 4.76 µM.
In turn, `CC(C)N1CCC(N(CCc2ccccc2)Cc2ccccc2)CC1` [Isopropyl, N-Benzyl-1-isopropyl-N-phenethylpiperidin-4-amine] yielded a CC50 in data set [2] of 37.6 µM. Also, the concentration for a half-maximal effect (EC50) in data set [3] (Table 6, read-out: EC50) worked out at 0.94 µM.
The like results for `CN1CCC(N(CCc2ccccc2)Cc2ccccc2)CC1` [Me, N-Benzyl-1-methyl-N-phenethylpiperidin-4-amine] were, in that order, 41.1 µM and 0.92 µM.
The like results for `c1ccc(CCN(Cc2ccccc2)C2CCN(Cc3ccc4c(c3)OCCO4)CC2)cc1` [N-Benzyl-1-((2,3-dihydrobenzo[b][1,4]dioxin-6-yl)methyl)-N-phenethylpiperidin-4-amine] were, in that order, 36.6 µM and 2.78 µM.
In data set [2], `c1ccc(CCN(Cc2ccccc2)C2CCN(c3ccccc3)CC2)cc1` [Phenyl, N-Benzyl-N-phenethyl-1-phenylpiperidin-4-amine] returned a CC50 above 100 µM. Moreover, the EC50 in data set [3] was above 31.6 µM.
For the compound `O=[S+]([O-])(c1ccccc1)N1CCC(N(CCc2ccccc2)Cc2ccccc2)CC1` [Phenylsulfonyl, N-Benzyl-N-phenethyl-1-(phenylsulfonyl)piperidin-4-amine], in data set [2], the CC50 was above 100 µM. The EC50 in data set [3] (Table 6, read-out: EC50) is above 32.6 µM.
Taken in the same sequence, the figures for `CCCN1CCC(N(CCc2ccccc2)Cc2ccccc2)CC1` [Propyl, N-Benzyl-N-phenethyl-1-propylpiperidin-4-amine] were 38.2 µM and 0.37 µM.
Take `NC(=O)c1ncn([C@@H]2O[C@H](CO)[C@@H](O)[C@H]2O)n1` [Ribavirin]: in data set [4], the “CalcuSyn CI value” is 0.630 ± 0.106 and the “antiviral effect of (S)-CCZ with the drug named” value is “highly synergistic”.
Taken in the same sequence, the figures for `CC(C)OC(=O)[C@H](C)N[P@](=O)(OC[C@H]1O[C@@H](n2ccc(=O)[nH]c2=O)[C@](C)(F)[C@@H]1O)Oc1ccccc1` [Sofosbuvir] were 0.362 ± 0.075 and “highly synergistic”.
`CCC[C@H](NC(=O)[C@@H]1[C@H]2CCC[C@H]2CN1C(=O)[C@@H](NC(=O)[C@@H](NC(=O)c1cnccn1)C1CCCCC1)C(C)(C)C)C(=O)C(=O)NC1CC1` [Telaprevir]: in data set [4], the “CalcuSyn CI value” is 0.426 ± 0.138.
